Reference: the supplement of paper PMC10290057
Counter-ions that a name gives are not always drawn.

tested on: HCT116; assay: efficacy (fitted maximal change in viability relative to DMSO control); higher = less cytotoxic (negative = loss of viability); conditions: 48 h
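Also: Luminescence-based viability readout, five doses per compound, normalized against on-plate DMSO and empty-well controls, followed by dose-response curve fitting for every drug.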

In order of falling efficacy:
1. CN1C(=O)N[C@H](Cc2c[nH]c3c(Cl)cccc23)C1=O [Necrostatin 2]  15%
2. CCOC(=O)\C1=C\[C@@H](OC(CC)CC)[C@H](NC(C)=O)[C@@H](N)C1 [Oseltamivir phosphate]  13%
3. NC[C@H](O)c1ccc(O)c(O)c1 [Noradrenaline bitartrate monohydrate]  10.7%
4. CCN1\C=C(\C(O)=O)C(=O)C2=C1C=C(N3CCNCC3)C(=C2)F [Norfloxacin]  9.53%
5. C[C@@H](O)[C@@H]1NC(=O)[C@H](CCCCN)NC(=O)[C@@H](Cc2c[nH]c3ccccc23)NC(=O)[C@H](Cc2ccccc2)NC(=O)[C@@H](NC(=O)[C@H](N)Cc2ccccc2)CSSC[C@@H](C(=O)N[C@H](CO)[C@@H](C)O)NC1=O [Octreotide]  9.15%
6. CN(C)CC/C=C1/c2ccccc2COc2ccc(CC(=O)O)cc21 [Olopatadine hydrochloride]  5.52%
7. CO[C@@H]1[C@@H](OC(N)=O)[C@@H](O)[C@H](OC2=CC=C3\C(=C(NC(=O)C4=CC=C([O-])C(=C4)CC=C(C)C)/C(=O)OC3=C2C)O)OC1(C)C [Novobiocin sodium]  3.79%
8. CC(C)(C)C(=O)CN1C(=O)[C@H](NC(=O)Nc2cccc(C(=O)O)c2)CN(C2CCCCC2)c2ccccc21 [Nastorazepide]  -4.67%
9. CNC(=O)c1ccc2cc(C3(O)CCn4cncc43)ccc2c1 (centres undefined) [Orteronel]  -5.91%
10. CCCc1nc(C(C)(C)O)c(C(=O)O)n1Cc1ccc(-c2ccccc2-c2nn[nH]n2)cc1 [Olmesartan]  -6.46%
11. CC1=C(C=CC=C1)N2\C(=N/C3=C(C(=CC=C3)C)C2=O)C[N]4N=CC5=C4N=CN=C5N [PIK-293]  -6.78%
12. CCCCCCCCCCCC(CC1OC(=O)C1CCCCCC)OC(=O)C(CC(C)C)NC=O (centres undefined) [Orlistat]  -6.83%
13. CN1C(=O)C(Cc2c[nH]c3ccccc23)NC1=S (centres undefined) [Necrostatin-1]  -7.49%
14. CNC(=O)c1c(-c2ccc(F)cc2)oc2cc(N(CCO)[S+](C)(=O)[O-])c(C3CC3)cc12 [Nesbuvir]  -8.31%
15. O=C(/C=C/N1C[C@H]2C[C@@H]1CN2c1ccccn1)c1ccccc1O [PFI-3]  -9.44%
16. CC1COC2=C3N1\C=C(C(O)=O)/C(=O)C3=CC(=C2N4CCN(C)CC4)F (centres undefined) [Ofloxacin]  -9.68%
17. CN1C(=O)/C=C(/NCCN(CCO)CCCC2=CC=C(C=C2)[N+]([O-])=O)N(C)C1=O [Nifekalant]  -10%
18. O=[N+]([O-])c1cncn1CCN1CCOCC1 [Nimorazole]  -10.3%
19. CC(C)C1CCC(C(=O)N[C@H](Cc2ccccc2)C(=O)O)CC1 (some centres undefined) [Nateglinide]  -11%
20. O=C(CCN1CCN(C(=O)OCc2cc(Cl)cc(Cl)c2)CC1)c1ccc2[nH]c(=O)oc2c1 [PF-8380]  -11.3%
21. Oc1nc(-c2ccc(C(F)(F)F)cc2)nc2c1CSCC2 [NVP-XAV-939]  -13.5%
22. N[C@@H](CCC(=O)O)C(=O)N[C@@H](Cc1c[nH]c2ccccc12)C(=O)O [Oglufanide]  -13.7%
23. CCCCCCCCCCCCc1ccc([S+](=O)([O-])Nc2nncs2)cc1 [PHT-427]  -13.9%
24. COc1ccc(C(=O)N2CCN(C(=O)/C=C/c3ccc(Br)cc3)CC2)cc1 [NIBR-189]  -15.1%
25. C[S+](=O)([O-])Nc1ccc([N+](=O)[O-])cc1Oc1ccccc1 [Nimesulide]  -15.6%
26. OC(=O)C/1=C/C(=O)NC(=O)N1 [Orotic acid]  -16.5%
27. COc1ccc2[nH]c([S+]([O-])Cc3ncc(C)c(OC)c3C)nc2c1 (centres undefined) [Omeprazole]  -17.5%
28. NC(=O)c1cc(F)cc2c1C(=O)N(C1CCN(C3CCC(F)(F)CC3)CC1)C2 [NMS-P118]  -18.7%
29. CC1=CC(=C(O)C(=C1C\C2=N\CCN2)C)C(C)(C)C [Oxymetazoline hydrochloride]  -19.1%
30. O=[N+]([O-])c1cn2c(n1)OC[C@@H](OCc1ccc(OC(F)(F)F)cc1)C2 [PA-824]  -19.8%
31. Cc1cccc(C)c1NC(=O)CN1CCCC1=O [Nefiracetam]  -20.6%
32. CC(C)NC(=O)N1CC[C@@H](C1)NC/2=N/C3=C(C=CC(=C3)F)N(CC(F)F)C4=C2C=C(Cl)C=C4 [NVS-PAK1-1]  -21.2%
33. C[C@]12COC(=O)C[C@@H]1CC[C@@H]1[C@@H]2CC[C@@]2(C)[C@H]1CC[C@]2(C)O [Oxandrolone]  -21.6%
34. CN1CCN(CC1)C2=C(NC(=O)C/3=C/NC(=O)/C=C3C(F)(F)F)C=C(C=C2)C4=CC(=CC=C4)CN5CCOCC5 [OICR-9429]  -23.2%
35. N=C(N)Nc1ccc(C(=O)Oc2ccc3cc(C(=N)N)ccc3c2)cc1 [Nafamostat mesilate]  -24.8%
36. C\C1=C(\SSC1=S)C2=CN=CC=N2 [Oltipraz]  -26.5%
37. CC(C)(F)C[C@H](N[C@@H](c1ccc(-c2ccc([S+](C)(=O)[O-])cc2)cc1)C(F)(F)F)C(=O)NC1(C#N)CC1 [Odanacatib]  -28.3%
38. COC(=O)N1CCN(Cc2cccc(NC(=O)Nc3ccc(C)nc3)c2F)CC1 [Omecamtiv mecarbil]  -28.6%
39. O=C1CCC[C@@H]2[C@H]3CCC[N+]4([O-])CCC[C@@H](CN12)[C@@H]34 (some centres undefined) [Oxymatrine]  -29.8%
40. CC(C)Oc1ccc(-c2nc(-c3cccc4c3CC[C@@H]4NCCO)no2)cc1C#N [Ozanimod]  -31.3%
41. CCC(CCCC)COC(=O)C(\C#N)=C(\c1ccccc1)c2ccccc2 (centres undefined) [Octocrylene]  -31.5%
42. CCOCOC[C@H](C[C@H](C)C(=O)NO)NC(=O)c1ccc(Oc2ccccc2)cc1 [ONO-4817]  -33.1%
43. Nc1nc(OCc2ccccc2)c2nc[nH]c2n1 [O6-Benzylguanine]  -34.3%
44. CN(CC#C)C/C1=C/C2=CC=CC=C2OC3=CC=CC=C13 [Omigapil]  -34.5%
45. CC1(C)NC(=O)N(c2ccc([N+](=O)[O-])c(C(F)(F)F)c2)C1=O [Nilutamide]  -35.5%
46. FC1=C(C=C(C/C2=N/NC(=O)C3=C2C=CC=C3)C=C1)C(=O)N4CCN(CC4)C(=O)C5CC5 [Olaparib]  -38.8%
47. NCC/1=C/NC(=S)N1[C@H]2CCC3=C(F)C=C(F)C=C3C2 [Nepicastat hydrochloride]  -46.6%
48. CN(C)CCNC(=O)COc1c2cccc1Cc1cccc(c1OCC(=O)NCCN(C)C)Cc1cccc(c1OCC(=O)NCCN(C)C)Cc1cccc(c1OCC(=O)NCCN(C)C)C2 [OTX-008]  -46.7%
49. OCCOc1ccc(/C(=C(/CCCl)c2ccccc2)c2ccccc2)cc1 [Ospemifene]  -49.5%
50. CC#CC(=O)N1CC[C@@H](n2c(=O)n(-c3ccc(Oc4ccccc4)cc3)c3c(N)ncnc32)C1 [ONO-4059 (GS-4059)]  -53.5%
51. COc1cc(OCc2cccc(-c3ccccc3)c2C)cc(OC)c1CN1CCCC[C@H]1C(=O)O [PD-1/PD-L1 Inhibitor 1]  -62%
52. COc1ccccc1C(=O)Nc1cc2c(cc1N1CCCC1)n(C)c(=O)n2C [PFI-4]  -64%
53. C=CC(=O)N1CCC[C@H](n2c(=O)n(-c3ccc(Oc4ccccc4)cc3)c3c(N)ncnc32)C1 [ONO-4059 analog]  -67.4%
54. FC1=CC=C(CN2\C=C/C=C(/C(=O)N[C@@H](COC3=CC4=C(NC(=O)N4)C=C3)C5=CC=CC=C5)C2=O)C=C1F [PDPK1 Inhibitor]  -72.1%
